Results as given in patent US20090029856A1, “Hinokitiol As A Plant Pesticide” (priority 2007, published 2009).
Values after ≈ are worked out from the molar mass of the structure shown.

What was measured:
[1] = test system: chickweed (Stellaria media); experiment: Pot study, phytotoxicity and % weed control; format: in vivo
Description: (§1) A pot study was conducted to test the phytotoxicity of hinokitiol on both broadleaved and grass weed. Ten seeds of either chickweed (Stellaria media) or annual bluegrass (Poa annua) were planted in a plastic pot filled with potting mix. The 2-inch tall plants grown under growth lights (12-h light/12-h dark) at room temperature were sprayed with hinokitiol solutions containing 0.5, 1.0, 2.0, 3.0, 4.0 and 5.0 mg/mL hinokitiol in 50% ethanol. A solution of 50% ethanol without hinokitiol was used as a control treatment. The plants were kept at room temperature under growth lights and observed at two time points—4 and 14 days after treatment—for visual symptoms of phytotoxicity and % weed control.

[2] = test system: annual bluegrass (Poa annua); experiment: Pot study, phytotoxicity and % weed control; format: in vivo
Description: as §1

Botrytis cinerea = experiment: Spiral gradient dilution method, inhibition of mycelial growth and spore germination; format: cell-based
Description: (§2) In this method, a potato dextrose agar (PDA) medium is plated with the test solution by means of a spiral plater, which applies the compound in a 2.5-log dilution in a continuous radial concentration gradient. Fungal inoculum in two replicates is then placed along radial lines across the gradient. […] EC50 values were calculated based on these measurements. The fungi evaluated were members of the following families Anamorphic Phyllachoraceae (Colletotrichum acutatum), Anamorphic Sclerotiniaceae (Botrytis cinerea), Mitosporic fungi (Verticillium dahlias; Microphomina sp.), and Oomycota (Phytophtora capsici). Hinokitiol (5 mg/mL) was dissolved in acetone, and acetone alone was also used as a control to check for non-specific inhibition.

[3] = test system: Lactuca sativa (lettuce) seeds; experiment: 96-well seed germination inhibition screen; format: in vivo; conditions: single lettuce seed per well, 50 μL solution, 5× dilution series
Description: Numerous natural compounds were screened for their ability to inhibit the germination of dicot (broadleaved weed) seeds. A single seed of Lactuca sativa (lettuce) was placed in each well of a 96-well plate followed by 50 μL of a solution of each compound in a stepwise (5×) dilution series from 25% to 0%. Germination was monitored daily. Based on this screening study, the threshold value for hinokitiol to inhibit germination of seeds was determined at 0.32 mg/L.

[4] = test system: spurge, white clover, annual bluegrass and crab grass; experiment: Field study of herbicidal effect, % weed control; format: in vivo
Description: A hinokitiol formulation containing 32.4% of hinokitiol by weight was tested in a field study. The formulation also contained dispersing agent, water and emulsifier. The two concentrations tested contained 5% and 0.5% hinokitiol (w/w), and the spraying volume was 100 gallons per acre. Three replicate 1-square-foot plots were sprayed with the appropriate solutions, and the % weed control in each plot was recorded at 3, 7, 14 and 20 days after treatment. The main weeds in this study were spurge, white clover, annual bluegrass and crab grass.

[5] = test system: Pseudomonas viridilivida (PSVI); experiment: Spiral plating method, growth inhibition; format: cell-based; conditions: P. viridilivida
Description: (§3) The spiral plating method was used to deposit the fungicides on PDA and TSA plates with exponential logarithmic decrease of product concentration from the centre to the edge of the plate. The plates were left standing for four hours and inoculated with the fungus and bacteria. There were four repetitions of the same microorganism done per plate and there was one replica of each plate.
(§4) The plates were cultured for 3 days before measurements of growth were taken. The ‘distance of inhibition’ indicates the length of the zone with no growth, measured from center edge of the agar, the ‘colony width ratio’ indicates the ratio of the width of growth measured at the zero concentration and width at the highest concentration with growth.

[6] = test system: Monilinia fructicola (MON); experiment: Spiral plating method, growth inhibition; format: cell-based; conditions: M. fructicola; average distance of inhibition / 28 mm × 100
Description: as §3, §4

Botrytis cinerea (BOT) = experiment: Spiral plating method, growth inhibition; format: cell-based; conditions: B. cinerea
Description: as §3, §4

[7] = test system: Xanthomonas campestris (X-CAM); experiment: Spiral plating method, growth inhibition; format: cell-based; conditions: average distance of inhibition / 28 mm × 100
Description: as §3, §4

[8] = test system: Erwinia carotovora (ERWC); experiment: Spiral plating method, growth inhibition; format: cell-based; conditions: E. carotovora; average distance of inhibition / 28 mm × 100
Description: as §3, §4

Fusarium sp (FUSM) = experiment: Spiral plating method, growth inhibition; format: cell-based; conditions: average distance of inhibition / 28 mm × 100
Description: as §3, §4

Phoma = experiment: Hinokitiol spiral PDA plates, growth after 2 days; format: cell-based; conditions: 2 days of incubation
Description: as §2
(§5) Another set of hinokitiol spiral PDA plates prepared as above were inoculated with plant pathogenic fungi from the genera Mucor, Rhizoctonia, Geotrichum, Phoma, and Penicillium.

Mucor = experiment: Hinokitiol spiral PDA plates, growth after 2 days; format: cell-based; conditions: 2 days of incubation
Description: as §2, §5

Rhizoctonia = experiment: Hinokitiol spiral PDA plates, growth after 2 days; format: cell-based; conditions: 2 days of incubation
Description: as §2, §5

Geotrichum = experiment: Hinokitiol spiral PDA plates, growth after 2 days; format: cell-based; conditions: 2 days of incubation
Description: as §2, §5

Penicillium = experiment: Hinokitiol spiral PDA plates, growth after 2 days; format: cell-based; conditions: 2 days of incubation
Description: as §2, §5

[9] = 0.5 mg/mL in 50% ethanol, 4 DAYS
[10] = 0.5 mg/mL in 50% ethanol, 14 DAYS
[11] = 1.0 mg/mL in 50% ethanol, 4 DAYS
[12] = 1.0 mg/mL in 50% ethanol, 14 DAYS
[13] = 2.0 mg/mL in 50% ethanol, 4 DAYS
[14] = 2.0 mg/mL in 50% ethanol, 14 DAYS
[15] = 3.0 mg/mL in 50% ethanol, 4 DAYS
[16] = 3.0 mg/mL in 50% ethanol, 14 DAYS
[17] = 4.0 mg/mL in 50% ethanol, 4 DAYS
[18] = 4.0 mg/mL in 50% ethanol, 14 DAYS
[19] = 5.0 mg/mL in 50% ethanol, 4 DAYS
[20] = 5.0 mg/mL in 50% ethanol, 14 DAYS

CC(C)c1cccc(=O)c(O)c1 [Hinokitiol, 4-isopropyl tropolone]
Stellaria media (% control) [1, 9]: 1%
Stellaria media (% control) [1, 10]: 0%
Stellaria media (% control) [1, 11]: 2%
Stellaria media (% control) [1, 12]: 10%
Stellaria media (% control) [1, 13]: 10%
Stellaria media (% control) [1, 14]: 55%
Stellaria media (% control) [1, 15]: 95%
Stellaria media (% control) [1, 16]: 100%
Stellaria media (% control) [1, 17]: 98%
Stellaria media (% control) [1, 18]: 100%
Stellaria media (% control) [1, 19]: 100%
Stellaria media (% control) [1, 20]: 100%
Poa annua (% control) [2, 9]: 0%
Poa annua (% control) [2, 10]: 0%
Poa annua (% control) [2, 11]: 1%
Poa annua (% control) [2, 12]: 0%
Poa annua (% control) [2, 13]: 2%
Poa annua (% control) [2, 14]: 5%
Poa annua (% control) [2, 15]: 10%
Poa annua (% control) [2, 16]: 15%
Poa annua (% control) [2, 17]: 30%
Poa annua (% control) [2, 18]: 25%
Poa annua (% control) [2, 19]: 50%
Poa annua (% control) [2, 20]: 50%
inhibition in spore germination (Botrytis cinerea; B. cinerea, hinokitiol at concentrations 5-0.05 mg/mL, light microscope): 100%
EC50 (Botrytis cinerea; Botrytis cinerea, PDA, 20° C., hinokitiol in acetone): 31 mg/L (≈ 189 µM)
threshold value to inhibit germination of seeds [3]: 0.32 mg/L
% weed control ([4]; 0.5% hinokitiol (w/w), 3 DAYS): 3.3%
% weed control ([4]; 0.5% hinokitiol (w/w), 7 DAYS): 3.7%
% weed control ([4]; 0.5% hinokitiol (w/w), 14 DAYS): 1.7%
% weed control ([4]; 0.5% hinokitiol (w/w), 20 DAYS): 3.0%
% weed control ([4]; 5.0% hinokitiol (w/w), 7 DAYS): 90.3%
% weed control ([4]; 5.0% hinokitiol (w/w), 14 DAYS): 88.3%
% weed control ([4]; 5.0% hinokitiol (w/w), 20 DAYS): 83.7%
% weed control ([4]; 5.0% hinokitiol (w/w), 100 gallons per acre, 3 DAYS): 86.7%
weeds controlled ([4]; formulation containing 5% (w/w) hinokitiol, one week after spraying): more than 90%
herbicidal effect on weeds ([4]; same solution at 10× lower concentration): negligible effect
inhibition of growth [5]: did not inhibit
% inhibition of growth [6]: 48%
inhibition of growth (Botrytis cinerea (BOT)): did not inhibit
% inhibition of growth [7]: 83%
% inhibition of growth [8]: 62%
% inhibition of growth (Fusarium sp (FUSM)): 32%
inhibition of growth (Phoma): complete inhibition
inhibition of growth (Mucor): complete inhibition
inhibition of growth (Rhizoctonia): complete inhibition
inhibition of growth (Geotrichum): complete inhibition
inhibition of growth (Penicillium): complete inhibition
